Where two headings read alike, the source gives them in different places.
What was measured:
[1] = tested on: EX-Taq DNA polymerase; assay: PCR using EX-Taq DNA polymerase with added salts (Examples 1-1 to 1-3); format: biochemical
Protocol: The effect produced by the addition of oxalate ions was investigated in the PCR using EX-Taq DNA polymerase. A PCR buffer supplied with EX-Taq (TAKARA) and 0.3 μM of a pair of primers of SEQ ID Nos:8 and 9 and 0.2 mM dNTPs were used. PCR was performed by using 1.0 U EX-Taq DNA polymerase and 20 ng of genomic DNA derived from human cell line K562 as a template, with the influence on the PCR result caused by varying the concentration of added oxalate ion being investigated. The PCR conditions were as follows: 1 preliminary reaction of 94° C. for 2 minutes, and then 35 cycles of 94° C. for 15 seconds, 60° C. for 30 seconds and 68° C. for 8.5 minutes. This PCR amplification was performed by using GeneAmp2400 (PE Applied Biosystems).
Salts (potassium chloride, potassium acetate, potassium oxalate, sodium oxalate, potassium sulfate) were investigated for their effectiveness in PCR using EX-Taq DNA polymerase under the same conditions as Example 1. Each salts was used in an amount of 4 to 6 mM of ion equivalent

[2] = target: T1, KOD-plus DNA polymerase (Thermococcus kodakarensis, UniProt P77933, DEL407-766/DEL853-1389); format: biochemical, Thermococcus kodakaraensis KOD1; conditions: for effect on extra bands: FIG. 10; for amplification of target DNA (electrophoresis pattern): salt at 6 mM of ion equivalent, FIG. 9
T1 construct: purchased Toyobo
T1 sequence (P77933 other isoform, or with tags, fused parts or gaps DEL407-766/DEL853-1389): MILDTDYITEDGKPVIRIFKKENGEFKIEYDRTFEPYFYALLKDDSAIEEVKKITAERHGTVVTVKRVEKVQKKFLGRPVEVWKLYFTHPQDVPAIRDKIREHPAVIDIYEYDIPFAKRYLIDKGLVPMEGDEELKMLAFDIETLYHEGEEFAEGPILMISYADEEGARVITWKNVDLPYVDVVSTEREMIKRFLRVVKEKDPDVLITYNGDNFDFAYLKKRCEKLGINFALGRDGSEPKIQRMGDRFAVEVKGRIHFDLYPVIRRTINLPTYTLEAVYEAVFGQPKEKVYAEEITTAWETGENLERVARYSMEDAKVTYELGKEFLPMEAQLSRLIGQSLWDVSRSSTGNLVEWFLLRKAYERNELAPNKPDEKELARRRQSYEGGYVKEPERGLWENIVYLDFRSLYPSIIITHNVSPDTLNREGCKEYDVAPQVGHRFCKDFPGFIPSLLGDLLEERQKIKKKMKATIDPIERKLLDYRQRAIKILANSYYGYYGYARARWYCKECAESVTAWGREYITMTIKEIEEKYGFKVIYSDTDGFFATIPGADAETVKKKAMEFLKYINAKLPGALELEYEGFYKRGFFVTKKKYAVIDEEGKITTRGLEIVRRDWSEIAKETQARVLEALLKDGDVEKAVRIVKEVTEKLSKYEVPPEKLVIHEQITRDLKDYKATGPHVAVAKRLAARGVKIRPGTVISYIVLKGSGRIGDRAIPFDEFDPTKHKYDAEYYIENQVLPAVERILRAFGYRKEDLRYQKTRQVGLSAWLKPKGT

[3] = target: T2, nPfu DNA polymerase (Pyrococcus furiosus, UniProt P61875); assay: PCR using nPfu DNA polymerase with added salts (Examples 1-5, 1-6); format: biochemical; conditions: for amplification of target DNA (electrophoresis pattern): salt at 4-6 mM of ion equivalent, FIG. 7
T2 construct: α-Type Enzyme (Native Pfu); purchased STRATAGENE
T2 sequence (P61875 1-775): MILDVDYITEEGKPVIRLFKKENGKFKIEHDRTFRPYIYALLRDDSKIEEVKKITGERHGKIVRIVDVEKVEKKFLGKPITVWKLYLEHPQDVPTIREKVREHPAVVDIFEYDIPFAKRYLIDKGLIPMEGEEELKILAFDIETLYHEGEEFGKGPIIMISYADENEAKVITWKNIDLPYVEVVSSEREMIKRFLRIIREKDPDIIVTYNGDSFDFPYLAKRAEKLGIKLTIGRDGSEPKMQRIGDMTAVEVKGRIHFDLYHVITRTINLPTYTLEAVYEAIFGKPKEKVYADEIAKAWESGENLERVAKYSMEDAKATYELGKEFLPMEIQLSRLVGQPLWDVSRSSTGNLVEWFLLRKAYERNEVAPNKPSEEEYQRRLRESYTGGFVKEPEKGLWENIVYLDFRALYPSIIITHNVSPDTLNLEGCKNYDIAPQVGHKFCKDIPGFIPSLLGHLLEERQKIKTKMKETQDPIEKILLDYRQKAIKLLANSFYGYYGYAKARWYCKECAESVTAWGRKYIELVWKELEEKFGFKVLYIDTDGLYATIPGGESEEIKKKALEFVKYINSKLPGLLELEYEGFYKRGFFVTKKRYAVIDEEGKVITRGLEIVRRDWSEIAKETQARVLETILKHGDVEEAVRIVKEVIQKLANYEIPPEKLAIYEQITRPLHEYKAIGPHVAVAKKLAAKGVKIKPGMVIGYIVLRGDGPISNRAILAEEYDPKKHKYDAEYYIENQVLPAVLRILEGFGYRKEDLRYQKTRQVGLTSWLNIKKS
Protocol: The effect produced by the addition of oxalate ion in PCR was investigated using nPfu polymerase. A PCR buffer (20 mM Tris-HCl (pH 8.75), 10 mM KCl, 10 mM (NH4) 2SO4, 2 mM MgSO4, 0.1% Triton X-100, 100 μg/ml BSA) attached to nPfu (STRATAGENE), 0.2 mM of dNTPs, and 0.3 μM of a pair of primers of SEQ ID NOs:12, and 13 were used. PCR was performed by using 2.5 U nPfu DNA polymerase and 20 ng of genomic DNA derived from human cell line K562 as a template, with the influence on the PCR result caused by varying the concentration of oxalate ion being investigated. PCR was performed by using GeneAmp2400 (PE Applied Biosystems) with the following conditions: 1 preliminary reaction of 94° C. for 2 minutes, and then 35 cycles of 94° C. for 15 seconds, 60° C. for 30 seconds and 68° C. for 8 minutes.
Salts (potassium chloride, potassium acetate, potassium oxalate, potassium sulfate) were tested for their effectiveness in PCR using nPfu DNA polymerase under the same conditions as Example 1-5.

[4] = target: T1, KOD-plus DNA polymerase; format: biochemical, Thermococcus kodakaraensis KOD1
Protocol: The effect produced by the addition of oxalate ion to a hot start enzyme was investigated using a hot start enzyme KOD-plus DNA polymerase containing KOD α-type enzyme) and two kinds of KOD antibodies. The PCR buffer supplied with KOD-plus (manufactured by Toyobo), 0.2 mM dNTPs and 0.3 μM of a primer pair of SEQ ID Nos:8 and 9 were used. PCR was performed using 2.5 U KOD-plus DNA polymerase and 20 ng of Genomic DNA derived from human cell line K562 as a template to investigate the influence of varying the concentration of oxalate ion added on the PCR results. The PCR conditions were as follows: 1 preliminary reaction of 94° C. for 2 minutes, and then 35 cycles of 94° C. for 15 seconds, 60° C. for 30 seconds and 68° C. for 8.5 minutes. The PCR was performed using GeneAmp2400 (PE Applied Biosystems).

[5] = target: T3, Taq DNA polymerase (Thermus aquaticus, UniProt P19821); assay: PCR using Taq DNA polymerase with added oxalate ion (Example 1-4); format: biochemical; conditions: for PCR amplification of 4.5-kb DNA of myelin oligodendrocyte glycoprotein: FIG. 5; for PCR amplification of 3.6-kb DNA of β-globin: FIG. 4
T3 construct: purchased TOYOBO CO., LTD
T3 sequence (P19821 whole entry): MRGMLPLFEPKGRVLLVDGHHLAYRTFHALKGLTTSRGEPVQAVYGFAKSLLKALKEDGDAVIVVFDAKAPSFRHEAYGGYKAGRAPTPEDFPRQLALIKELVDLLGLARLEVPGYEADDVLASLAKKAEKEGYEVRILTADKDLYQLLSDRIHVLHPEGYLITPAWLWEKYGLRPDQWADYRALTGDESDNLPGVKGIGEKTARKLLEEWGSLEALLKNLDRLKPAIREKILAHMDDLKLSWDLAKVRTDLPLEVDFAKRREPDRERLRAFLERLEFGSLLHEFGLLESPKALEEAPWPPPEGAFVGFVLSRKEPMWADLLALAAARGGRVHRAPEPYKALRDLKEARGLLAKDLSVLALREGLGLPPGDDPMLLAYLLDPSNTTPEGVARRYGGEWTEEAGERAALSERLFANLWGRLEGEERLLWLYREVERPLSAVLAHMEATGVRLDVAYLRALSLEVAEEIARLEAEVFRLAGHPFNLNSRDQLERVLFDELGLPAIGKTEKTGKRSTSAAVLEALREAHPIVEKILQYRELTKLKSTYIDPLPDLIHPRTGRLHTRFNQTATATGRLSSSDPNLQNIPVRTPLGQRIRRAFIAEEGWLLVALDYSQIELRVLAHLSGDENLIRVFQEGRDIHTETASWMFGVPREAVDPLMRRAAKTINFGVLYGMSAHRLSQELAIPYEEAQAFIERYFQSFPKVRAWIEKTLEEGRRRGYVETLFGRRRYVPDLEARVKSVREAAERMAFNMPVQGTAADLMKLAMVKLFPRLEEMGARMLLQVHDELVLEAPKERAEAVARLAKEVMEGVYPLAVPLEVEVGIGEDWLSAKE
Protocol: The effect produced by the addition of oxalate ions was investigated in PCR using Taq DNA polymerase. A PCR buffer (10 mM Tris-HCl (pH 8.3), 50 mM KCl, 1.5 mM MgCl2) attached to Taq (TOYOBO CO., LTD.), 0.2 mM dNTPs and 0.3 μM of a primer pair were used. A pair of primers of SEQ ID Nos:10 and 11 was used for the PCR amplification of a 3.6-kb DNA of β-globin cluster (the electrophoresis pattern of its PCR product is shown in FIG. 4), while a pair of primers of SEQ ID Nos:12 and 13 was used for the PCR amplification of a 4.5-kb DNA of myelin oligodendrocyte glycoprotein (the electrophoresis pattern of its PCR product is shown in FIG. 5). The influence of varying the concentration of oxalate ions added on the PCR results was investigated using 2.5 U Taq DNA polymerase and 20 ng of Genomic DNA derived from cultured human cell K562 as a template. The PCR conditions were as follows: 94° C. for 2 minutes as 1 preliminary reaction, and then 30 cycles of 94° C. for 15 seconds, 60° C. for 30 seconds and 68° C. for 8 minutes. The PCR amplification was performed by using GeneAmp 2400 (PE Applied Biosystems).

[6] = K562 genomic DNA template, FIG. 1

For O=C([O-])CCC(=O)[O-].[K+].[K+] [potassium succinate, reference compound], the “amplification of target DNA (electrophoresis pattern)” value (“amplification of target DNA” below) ([1]; carboxylate salts, FIG. 3) was “A similar effect to that produced by oxalate salts was not observed”.
In the case of O=C[O-].[K+] [potassium formate, reference compound], the “amplification of target DNA” value ([1]; carboxylate salts, FIG. 3) was “A similar effect to that produced by oxalate salts was not observed”.
For O=C([O-])/C=C\C(=O)[O-].[Na+].[Na+] [sodium maleate], the “effect on extra bands” value ([2]; 4 mM salt) was “extra bands tended to decrease” and the “effect on extra bands” value ([2]; 10 mM salt) was “most of the extra bands disappeared”.
With O=C([O-])C(=O)[O-].[Na+].[Na+] [sodium oxalate] the “amplification of target DNA” value [2] was “Amplification was observed”, the “amplification of target DNA” value ([1]; carboxylate salts, FIG. 3) was “amplification of the target DNA was observed” and the “amplification of target DNA” value ([1]; salt at 4 to 6 mM of ion equivalent, FIG. 2) was “Amplification was observed”.
For CC(=O)[O-].[K+] [potassium acetate, reference compound], the “amplification of target DNA” value [3] was “amplification of the target DNA was not observed” and the “amplification of target DNA” value [2] was “Amplification of the target DNA was not observed”.
O=C([O-])CC(=O)[O-].[Na+].[Na+] [sodium malonate] was tested, and the “effect on extra bands” value ([2]; 2 mM salt) was “the extra bands tended to decrease” and the “effect on extra bands” value ([2]; 6 mM salt) was “most of the extra bands disappeared”.
In the case of O=S(=O)([O-])[O-].[K+].[K+] [potassium sulfate, reference compound], the “amplification of target DNA” value [3] was “amplification of the target DNA was not observed” and the “amplification of target DNA” value [2] was “Amplification of the target DNA was not observed”.
O=C(O)C(=O)O [oxalate ion] was tested, and the “concentration range within which the effect of the addition of oxalate ion is found” value [4] was “up to 5 mM”, the “concentration range within which the effect of the addition of oxalate ion is found” value [5] was “up to 5 mM” and the “PCR amplification of 4.5-kb DNA of myelin oligodendrocyte glycoprotein” value ([5]; 1 mM oxalate ion) was “amplification of the target DNA was observed together with a smear”. The “PCR amplification of 3.6-kb DNA of β-globin” value ([5]; 2 mM oxalate ion) was “amplification of the target sequence was observed together with a smear”, the “PCR amplification of 4.5-kb DNA of myelin oligodendrocyte glycoprotein” value ([5]; 2 mM oxalate ion) was “no smear was observed” and the “PCR amplification of 3.6-kb DNA of β-globin” value ([5]; 4 mM oxalate ion) was “no smear was observed”. For the same compound, the “oxalate ion concentration giving a discrete amplification band” value ([5]; 3.6-kb DNA of β-globin) was 4 to 5 mM, the “oxalate ion concentration giving a discrete amplification band” value ([5]; 4.5-kb DNA of myelin oligodendrocyte glycoprotein) was 2 to 5 mM and the “concentration range within which the effect of the addition of oxalate ion is found” value [3] was “up to 5 mM”. For the same compound, the “oxalate ion concentration at which amplification of the target DNA was observed” value ([3]; FIG. 6) was 2 to 5 mM, the “concentration range of oxalate ion within which the effect of the addition is found” value [1] was “up to 4 mM” and the “oxalate ion amount at which amplification of the target DNA was confirmed” value [1, 6] was 1 to 4 mM. The “oxalate ion concentration at which the amount of amplification was the highest” value [1, 6] was 2 to 3 mM.
[Cl-].[K+] [potassium chloride, reference compound] was tested, and the “amplification of target DNA” value [3] was “amplification of the target DNA was not observed” and the “amplification of target DNA” value [2] was “Amplification of the target DNA was not observed”.

— patent US20050069887A1, “Dna synthesis promoters dna polymerase-associated factors and utilization thereof” (priority 2001, published 2005)
